Results: PubChem BioAssay (NCI)
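Growth conditions: 96-well plates. Treatment: test compound, 48 hours, 5 concentrations. Analysis: linear interpolation between bracketing concentrations; unreached endpoints set to highest concentration. At the TGI there is no net growth.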

Legend:
Assay in all cases: growth of human tumour cells (NCI), 48 h
SW-620 colon = tested on: SW-620 colon
BT-549 breast = tested on: BT-549 breast
A549 NSCLC = tested on: A549 NSCLC
NCI/ADR-RES ovarian = tested on: NCI/ADR-RES ovarian
CCRF-CEM leukemia = tested on: CCRF-CEM leukemia
HCC-2998 colon = tested on: HCC-2998 colon
SF-539 CNS = tested on: SF-539 CNS
CAKI-1 renal = tested on: CAKI-1 renal
MDA-MB-435 = tested on: MDA-MB-435
HS 578T breast = tested on: HS 578T breast
MALME-3M melanoma = tested on: MALME-3M melanoma
OVCAR-4 ovarian = tested on: OVCAR-4 ovarian
SF-295 CNS = tested on: SF-295 CNS
SK-MEL-2 melanoma = tested on: SK-MEL-2 melanoma
U251 CNS = tested on: U251 CNS
SNB-19 CNS = tested on: SNB-19 CNS
PC-3 prostate = tested on: PC-3 prostate
SNB-75 CNS = tested on: SNB-75 CNS
SK-OV-3 ovarian = tested on: SK-OV-3 ovarian
T-47D breast = tested on: T-47D breast
DU-145 prostate = tested on: DU-145 prostate
UO-31 renal = tested on: UO-31 renal
KM12 colon = tested on: KM12 colon
K-562 leukemia = tested on: K-562 leukemia
HOP-62 NSCLC = tested on: HOP-62 NSCLC
MCF7 breast = tested on: MCF7 breast
MDA-N = tested on: MDA-N
RPMI-8226 leukemia = tested on: RPMI-8226 leukemia
IGROV1 ovarian = tested on: IGROV1 ovarian
SR leukemia = tested on: SR leukemia
HCT-116 colon = tested on: HCT-116 colon
HL-60(TB) leukemia = tested on: HL-60(TB) leukemia
HCT-15 colon = tested on: HCT-15 colon
EKVX NSCLC = tested on: EKVX NSCLC
M14 melanoma = tested on: M14 melanoma
NCI-H23 lung = tested on: NCI-H23 lung
NCI-H522 lung = tested on: NCI-H522 lung
MOLT-4 leukemia = tested on: MOLT-4 leukemia
NCI-H460 lung = tested on: NCI-H460 lung
A498 renal = tested on: A498 renal
OVCAR-5 ovarian = tested on: OVCAR-5 ovarian
SK-MEL-5 melanoma = tested on: SK-MEL-5 melanoma
LOX IMVI melanoma = tested on: LOX IMVI melanoma
NCI-H226 lung = tested on: NCI-H226 lung
HT29 colon = tested on: HT29 colon
SF-268 CNS = tested on: SF-268 CNS
SK-MEL-28 melanoma = tested on: SK-MEL-28 melanoma
SN12C renal = tested on: SN12C renal
HOP-92 NSCLC = tested on: HOP-92 NSCLC
786-0 renal = tested on: 786-0 renal
OVCAR-3 ovarian = tested on: OVCAR-3 ovarian
MDA-MB-231 breast = tested on: MDA-MB-231 breast
UACC-62 melanoma = tested on: UACC-62 melanoma
COLO 205 colon = tested on: COLO 205 colon
TK-10 renal = tested on: TK-10 renal
ACHN renal = tested on: ACHN renal
UACC-257 melanoma = tested on: UACC-257 melanoma
OVCAR-8 ovarian = tested on: OVCAR-8 ovarian
RXF 393 renal = tested on: RXF 393 renal

CC(C)(C)c1cc(O)ccc1O was tested, and the TGI (SW-620 colon) was over 100 µM, the TGI (BT-549 breast) was over 100 µM and the TGI (A549 NSCLC) was over 100 µM. The TGI (NCI/ADR-RES ovarian) was over 100 µM, the TGI (CCRF-CEM leukemia) was 33.2 µM and the TGI (HCC-2998 colon) was over 17.6 µM. It also gave a TGI (SF-539 CNS) of over 100 µM, a TGI (CAKI-1 renal) of over 70.4 µM and a TGI (MDA-MB-435) of over 71.2 µM. The TGI (HS 578T breast) was over 100 µM, the TGI (MALME-3M melanoma) was over 27.6 µM and the TGI (OVCAR-4 ovarian) was over 71.5 µM. For the same compound, the TGI (SF-295 CNS) was over 100 µM, the TGI (SK-MEL-2 melanoma) was 3.18 µM and the TGI (U251 CNS) was 5.56 µM. It also gave a TGI (SNB-19 CNS) of over 100 µM, a TGI (PC-3 prostate) of 5.3 µM and a TGI (SNB-75 CNS) of 25.2 µM. The TGI (SK-OV-3 ovarian) was over 100 µM, the TGI (T-47D breast) was 41.9 µM and the TGI (DU-145 prostate) was 23.4 µM. The TGI (UO-31 renal) was over 72.8 µM, the TGI (KM12 colon) was over 100 µM and the TGI (K-562 leukemia) was over 100 µM. The TGI (HOP-62 NSCLC) was over 100 µM, the TGI (MCF7 breast) was over 100 µM and the TGI (MDA-N) was over 100 µM. For the same compound, the TGI (RPMI-8226 leukemia) was over 93.7 µM, the TGI (IGROV1 ovarian) was over 100 µM and the TGI (SR leukemia) was 26.6 µM. For the same compound, the TGI (HCT-116 colon) was over 72.9 µM, the TGI (HL-60(TB) leukemia) was 26.7 µM and the TGI (HCT-15 colon) was over 100 µM. The TGI (EKVX NSCLC) was over 100 µM, the TGI (M14 melanoma) was over 100 µM and the TGI (NCI-H23 lung) was over 100 µM. It also gave a TGI (NCI-H522 lung) of over 39.8 µM, a TGI (MOLT-4 leukemia) of 27.1 µM and a TGI (NCI-H460 lung) of over 21.6 µM. It also gave a TGI (A498 renal) of over 100 µM, a TGI (OVCAR-5 ovarian) of over 100 µM and a TGI (SK-MEL-5 melanoma) of over 100 µM. It also gave a TGI (LOX IMVI melanoma) of over 74.6 µM, a TGI (NCI-H226 lung) of over 100 µM and a TGI (HT29 colon) of over 100 µM. For the same compound, the TGI (SF-268 CNS) was over 51.1 µM, the TGI (SK-MEL-28 melanoma) was over 100 µM and the TGI (SN12C renal) was over 100 µM. The TGI (HOP-92 NSCLC) was over 79.2 µM, the TGI (786-0 renal) was over 67 µM and the TGI (OVCAR-3 ovarian) was over 70 µM. For the same compound, the TGI (MDA-MB-231 breast) was 4.97 µM, the TGI (UACC-62 melanoma) was over 100 µM and the TGI (COLO 205 colon) was over 100 µM. The TGI (TK-10 renal) was 22.2 µM, the TGI (ACHN renal) was over 100 µM and the TGI (UACC-257 melanoma) was over 21.7 µM. For the same compound, the TGI (OVCAR-8 ovarian) was over 84.2 µM.
Compound CCOC(=O)c1ccc(NCC#CCN2CCCCC2)cc1 has a TGI (SW-620 colon) of over 100 µM, a TGI (BT-549 breast) of over 100 µM and a TGI (A549 NSCLC) of over 100 µM. It also gave a TGI (NCI/ADR-RES ovarian) of over 100 µM, a TGI (CCRF-CEM leukemia) of over 100 µM and a TGI (SF-539 CNS) of over 100 µM. It also gave a TGI (MDA-MB-435) of over 100 µM, a TGI (HS 578T breast) of over 100 µM and a TGI (MALME-3M melanoma) of over 100 µM. It also gave a TGI (OVCAR-4 ovarian) of over 100 µM, a TGI (SK-MEL-2 melanoma) of over 100 µM and a TGI (U251 CNS) of over 100 µM. It also gave a TGI (SNB-19 CNS) of over 100 µM, a TGI (PC-3 prostate) of over 100 µM and a TGI (SK-OV-3 ovarian) of over 100 µM. It also gave a TGI (T-47D breast) of over 100 µM, a TGI (DU-145 prostate) of over 100 µM and a TGI (UO-31 renal) of over 100 µM. For the same compound, the TGI (KM12 colon) was over 100 µM, the TGI (K-562 leukemia) was over 100 µM and the TGI (HOP-62 NSCLC) was over 100 µM. The TGI (MCF7 breast) was over 100 µM, the TGI (MDA-N) was over 100 µM and the TGI (RPMI-8226 leukemia) was over 100 µM. The TGI (IGROV1 ovarian) was over 100 µM, the TGI (SR leukemia) was over 100 µM and the TGI (HCT-116 colon) was over 100 µM. It also gave a TGI (HL-60(TB) leukemia) of over 100 µM, a TGI (HCT-15 colon) of over 100 µM and a TGI (EKVX NSCLC) of over 100 µM. For the same compound, the TGI (M14 melanoma) was over 100 µM, the TGI (NCI-H23 lung) was over 100 µM and the TGI (RXF 393 renal) was over 100 µM. The TGI (MOLT-4 leukemia) was over 100 µM, the TGI (A498 renal) was over 100 µM and the TGI (OVCAR-5 ovarian) was over 100 µM. For the same compound, the TGI (SK-MEL-5 melanoma) was over 100 µM, the TGI (LOX IMVI melanoma) was over 100 µM and the TGI (NCI-H226 lung) was over 100 µM. It also gave a TGI (HT29 colon) of over 100 µM, a TGI (SF-268 CNS) of over 100 µM and a TGI (SK-MEL-28 melanoma) of over 100 µM. It also gave a TGI (SN12C renal) of over 100 µM, a TGI (HOP-92 NSCLC) of over 100 µM and a TGI (786-0 renal) of over 100 µM. The TGI (OVCAR-3 ovarian) was over 100 µM, the TGI (MDA-MB-231 breast) was over 100 µM and the TGI (UACC-62 melanoma) was over 100 µM. The TGI (COLO 205 colon) was over 100 µM and the TGI (ACHN renal) was over 100 µM.
